The source of these data is patent US20170071967A1, “IMMUNOGENIC LIPOSOMAL FORMULATION” (GlaxoSmithKline Biologicals, SA, priority 2014, published 2017).

The test system of the data set is rabbits. Put plainly: Rabbit pyrogenicity test (surrogate measure of incorporation into liposomes). As to conditions: free (non-liposomal) CRX-601. The class given is in vivo. As for the experimental part: The tests were performed at Pacific Biolabs (Hercules, Calif.) as per their SOP 16E-02.

In turn, `CCCCCCCCCCC[C@H](CC(=O)N[C@H]1[C@H](OC[C@H](NC(=O)C[C@@H](CCCCCCCCCCC)OCCCCCCCCCC)C(=O)O)O[C@H](CO)[C@@H](OP(=O)(O)O)[C@@H]1OC(=O)C[C@@H](CCCCCCCCCCC)OCCCCCCCCCC)OCCCCCCCCCC` [CRX-601] displayed a max non-pyrogenic dose of 0.0025 µg/kg.
